In the experiment the target is T1, flavohemoglobin (gFlHb) (Giardia duodenalis, UniProt E2RTZ4).
T1 construct: gene hmpA; recombinant gFlHb fused to an N-terminal His6-tag
Briefly: UV-visible spectral titration of ferric heme at […] nm (also stimulates NADH oxidase activity). In kind it is binding.

From PMC9514659, “Giardia duodenalis: Flavohemoglobin is involved in drug biotransformation and resistance to albendazole” (PLoS Pathogens, 2022) come the findings set out here.

A word on the Kd: it is the free concentration of one partner at which half of the binding sites on the other are occupied at equilibrium, for simple one-to-one binding. The low end stands for a tighter complex, the high end for a looser complex.

T1 sequence (E2RTZ4 whole entry, the tested form may be a part): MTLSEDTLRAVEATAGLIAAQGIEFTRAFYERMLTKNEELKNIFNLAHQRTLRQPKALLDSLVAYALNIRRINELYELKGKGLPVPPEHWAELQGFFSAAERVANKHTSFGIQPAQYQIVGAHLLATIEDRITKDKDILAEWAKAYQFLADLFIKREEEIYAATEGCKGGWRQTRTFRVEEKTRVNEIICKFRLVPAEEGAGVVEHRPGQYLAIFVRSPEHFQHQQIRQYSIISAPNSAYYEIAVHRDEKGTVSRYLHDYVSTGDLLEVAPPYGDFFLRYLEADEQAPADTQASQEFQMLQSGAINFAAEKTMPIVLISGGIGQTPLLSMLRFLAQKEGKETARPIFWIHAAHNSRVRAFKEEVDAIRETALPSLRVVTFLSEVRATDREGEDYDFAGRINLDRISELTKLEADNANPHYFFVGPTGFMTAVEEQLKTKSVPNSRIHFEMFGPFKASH

Take `CCCSc1ccc2nc(NC(=O)OC)[nH]c2c1` [ABZ, albendazole]: the dissociation constant Kd worked out at 23 ± 9 nM.

`CCC[S+]([O-])c1ccc2[nH]c(NC(=O)OC)nc2c1` (centres unmarked) [ABZSO, albendazole sulfoxide] displayed a Kd of 19 ± 8 nM.
